Literature values, collected in patent US20240350678A1, “SYSTEMS AND METHODS FOR GENERATION OF HYPERPOLARIZED MATERIALS” (NVISION IMAGING TECHNOLOGIES GMBH, priority 2021, published 2024).
Where two headings read alike, the source gives them in different places.

maximal mole fraction of acetic acid in n-heptane (at 14.8° C.): 0.935 | maximal mole fraction of acetic acid in n-heptane (at −29.2° C.): 0.02
Compound: CC(=O)O [acetic acid]
